Activity calls are given as the source filed them. The rule behind the calls is not given here.
Legend:
Saccharomyces cerevisiae [1] = experiment: Antifungal activity against Saccharomyces cerevisiae 58W3D4 assessed as reduction of doubling time at 0.001 to 100 mM; assay type: functional, organism-based
Saccharomyces cerevisiae [2] = experiment: Antifungal activity against Saccharomyces cerevisiae BW15 assessed as reduction of doubling time at 0.001 to 100 mM; assay type: functional, organism-based
Saccharomyces cerevisiae [3] = experiment: Antifungal activity against Saccharomyces cerevisiae FL100 ATCC 28383 assessed as reduction of doubling time at > 10 mM; assay type: functional, organism-based
Botrytis cinerea [4] = experiment: Antifungal activity against Botryotinia fuckeliana T4 assessed as inhibition of spore germination after 5 days; assay type: functional, organism-based
Botrytis cinerea [5] = experiment: Antifungal activity against Botryotinia fuckeliana T4 assessed as inhibition of mycelial growth 2.4 mM at pH 7 after 5 days; assay type: functional
Botrytis cinerea [6] = experiment: Antifungal activity against Botryotinia fuckeliana T4 assessed as inhibition of mycelial growth after 5 days; assay type: functional, organism-based
Botrytis cinerea [7] = experiment: Antifungal activity against Botryotinia fuckeliana T4 assessed as inhibition of mycelial growth 2.4 mM at pH 4 after 5 days; assay type: functional

## CC(N)CC(=O)O (racemic)
Saccharomyces cerevisiae [1]
  Activity: inactive
Saccharomyces cerevisiae [2]
  Activity: inactive
Saccharomyces cerevisiae [3]
  Activity: Active
Botrytis cinerea [4]
  inhibition: Dose-dependent effect
Botrytis cinerea [5]
  inhibition (INH): 40%
Botrytis cinerea [6]
  inhibition: Dose-dependent effect
Botrytis cinerea [7]
  inhibition (INH): 100%
